Structures can show the parent of a compound that is named as a salt.
These compounds were tested on LP-1 cell line (assay: Cell-based pERK ELISA method, LP-1 cells). Settings: Homo sapiens, LP-1, read-out: IC50 less than 1 μM or at least 50% inhibition at a concentration of 1 μM, LP-1 pERK ELISA.
Procedure: LP-1 or JIM-1 multiple myeloma cells were seeded in 96 well plates at 1×10^6 cells/ml in 200 ul per well in serum free media. […] Cells were incubated for 16 h at 37° C. prior to the addition of a test compound for 30 minutes. Test compounds were administered at a 0.1% final DMSO concentration. […] ELISA plates and standards were prepared according o the standard DuoSet protocols and the relative amounts of pERK to total ERK in each sample calculated according to the standard curve.
In particular, compounds of the invention were tested against the LP-1 cell line (DSMZ no.: ACC 41) derived from human multiple myeloma.

Row | SMILES | IC50
1 | COC1CCCN(c2ccn3c(-c4cccc(NC(=O)NCC(F)(F)F)c4)cnc3c2)C1 (racemic) [Example 203, (±)-1-{3-[7-(3-Methoxy-piperidin-1-yl)-imidazo[1,2-a]pyridin-3-yl]-phenyl}-3-(2,2,2-trifluoro-ethyl)-urea] | < 1 µM
2 | CC(=O)Nc1cccc(-c2cnc3cc(-c4ccccc4)ccn23)c1 [Example 2, N-[3-(7-Phenyl-imidazo[1,2-a]pyridin-3-yl)-phenyl]-acetamide hydro-chloride salt] | < 1 µM
3 | CC(=O)Nc1cccc(-c2cnc3cc(-c4ccc(N5CCOCC5)cc4)ccn23)c1 [Example 5, N-{3-[7-(4-Morpholin-4-yl-phenyl)-imidazo[1,2-a]pyridin-3-yl]-phenyl}-acetamide] | < 1 µM
4 | CC(=O)Nc1cccc(-c2cnc3cc(-c4ccncc4)ccn23)c1 [Example 6, N-[3-(7-Pyridin-4-yl-imidazo[1,2-a]pyridin-3-yl)-phenyl]-acetamide] | < 1 µM
5 | CC(=O)Nc1cccc(-c2cnc3cc(-c4ccc(F)cc4)ccn23)c1 [Example 7, N-{3-[7-(4-Fluoro-phenyl)-imidazo[1,2-a]pyridin-3-yl]-phenyl}-acetamide] | < 1 µM
6 | CC(=O)Nc1cccc(-c2cnc3cc(-c4cccc(CO)c4)ccn23)c1 [Example 8, N-{3-[7-(3-Hydroxymeth-yl-phenyl)-imidazo[1,2-a]pyridin-3-yl]-phenyl}-acetamide] | < 1 µM
7 | CC(=O)Nc1cccc(-c2cnc3cc(-c4cccc(CN5CCOCC5)c4)ccn23)c1 [Example 9, N-{3-[7-(3-Morpholin-4-ylmethyl-phenyl)-imidazo[1,2-a]pyridin-3-yl]-phenyl}-acetamide] | < 1 µM
8 | CC(=O)Nc1cccc(-c2cnc3cc(-c4ccc(CN5CCOCC5)cc4)ccn23)c1 [Example 10, N-{3-[7-(4-Morpholin-4-ylmethyl-phenyl)-imidazo[1,2-a]pyridin-3-yl]-phenyl}-acetamide hydro-chloride salt] | < 1 µM
9 | CC(=O)Nc1cccc(-c2cnc3cc(-c4cccc(CC(=O)O)c4)ccn23)c1 [Example 11, {3-[3-(3-Acetylamino-phenyl)-imidazo[1,2-a]pyridin-7-yl]-phenyl}-acetic acid] | < 1 µM
10 | CCNC(=O)Nc1cccc(-c2cnc3cc(-c4ccc(F)cc4)ccn23)c1 [Example 15, 1-Ethyl-3-{3-[7-(4-fluoro-phenyl)-imidazo[1,2-a]pyridin-3-yl]-phenyl}-urea formate salt] | < 1 µM
11 | COC(=O)Nc1cccc(-c2cnc3cc(-c4ccc(F)cc4)ccn23)c1 [Example 16, {3-[7-(4-Fluoro-phenyl)-imidazo[1,2-a]pyridin-3-yl]-phenyl}-carbamic acid methyl ester formate salt] | < 1 µM
12 | CC(=O)Nc1cc(C#N)cc(-c2cnc3cc(-c4cccc(CN5CCOCC5)c4)ccn23)c1 [Example 28, N-{3-Cyano-5-[7-(3-morpholin-4-ylmethyl-phenyl)-imidazo[1,2-a]pyridin-3-yl]-phenyl}-acetamide] | < 1 µM
13 | CCNC(=S)Nc1cccc(-c2cnc3cc(-c4cccc(CN5CCN(C)CC5)c4)ccn23)c1 [Example 29, 1-Ethyl-3-(3-{7-[3-(4-methyl-piperazin-1-ylmethyl)-phenyl]-imidazo[1,2-a]pyridin-3-yl}-phenyl)-thiourea] | < 1 µM
14 | CCNC(=O)Nc1cccc(-c2cnc3cc(-c4cccc(CN5CCCCC5)c4)ccn23)c1 [Example 35, 1-Ethyl-3-{3-[7-(3-piperidin-1-ylmethyl-phenyl)-imidazo[1,2-a]pyridin-3-yl]-phenyl}-urea] | < 1 µM
15 | CCNC(=O)Nc1cccc(-c2cnc3cc(-c4cccc(C(=O)N5CCOCC5)c4)ccn23)c1 [Example 36, 1-Ethyl-3-(3-{7-[3-(morpholine-4-carbonyl)-phenyl]-imidazo[1,2-a]pyridin-3-yl}-phenyl)-urea] | < 1 µM
16 | CCNC(=O)Nc1cccc(-c2cnc3cc(-c4ccc(C(C)(C)C(=O)OC)cc4)ccn23)c1 [Example 39, 2-(4-{3-[3-(3-Ethyl-ureido)-phenyl]-imidazo[1,2-a]pyridin-7-yl}-phenyl)-2-methyl-propionic acid methyl ester] | < 1 µM
17 | CCNC(=O)Nc1cccc(-c2cnc3cc(-c4ccc(OC)nc4)ccn23)c1 [Example 43, 1-Ethyl-3-{3-[7-(6-methoxy-pyridin-3-yl)-imidazo[1,2-a]pyridin-3-yl]-phenyl}-urea] | < 1 µM
18 | CCNC(=O)Nc1cccc(-c2cnc3cc(-c4ccnc(OC)c4)ccn23)c1 [Example 45, 1-Ethyl-3-{3-[7-(2-methoxy-pyridin-4-yl)-imidazo[1,2-a]pyridin-3-yl]-phenyl}-urea] | < 1 µM
19 | CCNC(=O)Nc1cccc(-c2cnc3cc(-c4ccc(N5CCOCC5)nc4)ccn23)c1 [Example 49, 1-Ethyl-3-{3-[7-(6-morpholin-4-yl-pyridin-3-yl)-imidazo[1,2-a]pyridin-3-yl]-phenyl}-urea formate salt] | < 1 µM
20 | CCNC(=O)Nc1cccc(-c2cnc3cc(-c4ccc(CCN5CCOCC5)cc4)ccn23)c1 [Example 56, 1-Ethyl-3-(3-{7-[4-(2-morpholin-4-yl-ethyl)-phenyl]-imidazo[1,2-a]pyridin-3-yl}-phenyl)-urea hydro-chloride salt] | < 1 µM
21 | CCNC(=O)Nc1cccc(-c2cnc3cc(-c4ccc(N5CCNCC5)cc4)ccn23)c1 [Example 57, 1-Ethyl-3-{3-[7-(4-piperazin-1-yl-phenyl)-imidazo[1,2-a]pyridin-3-yl]-phenyl}-urea hydro-chloride salt] | < 1 µM
22 | CCNC(=O)Nc1cccc(-c2cnc3cc(-c4ccc(N5CCCCC5)nc4)ccn23)c1 [Example 58, 1-Ethyl-3-{3-[7-(3,4,5,6-tetrahydro-2H-[1,2′]bipyridinyl-5′-yl)-imidazo[1,2-a]pyridin-3-yl]-phenyl}-urea hydro-chloride salt] | < 1 µM
23 | CC(=O)Nc1cccc(-c2cnc3cc(-c4ccnc(N5CCN(C)CC5)c4)ccn23)c1 [Example 62, N-(3-{7-[2-(4-Methyl-piperazin-1-yl)-pyridin-4-yl]-imidazo[1,2-a]pyridin-3-yl}-phenyl)-acetamide] | < 1 µM
24 | CCC(=O)Nc1cccc(-c2cnc3cc(-c4ccc(F)cc4)ccn23)c1 [Example 64, N-{3-[7-(4-Fluoro-phenyl)-imidazo[1,2-a]pyridin-3-yl]-phenyl}-propionamide] | < 1 µM
25 | CC(=O)Nc1cccc(-c2cnc3cc(-c4ccc(OCC(O)CO)cc4)ccn23)c1 (stereo not shown) [Example 65, N-(3-{7-[4-(2,3-Dihydroxy-propoxy)-phenyl]-imidazo[1,2-a]pyridin-3-yl}-phenyl)-acetamide] | < 1 µM
26 | CCCC(=O)Nc1cccc(-c2cnc3cc(-c4ccc(F)cc4)ccn23)c1 [Example 66, N-{3-[7-(4-Fluoro-phenyl)-imidazo[1,2-a]pyridin-3-yl]-phenyl}-butyramide] | < 1 µM
27 | NCC(=O)Nc1cccc(-c2cnc3cc(-c4ccc(F)cc4)ccn23)c1 [Example 67, 2-Amino-N-{3-[7-(4-fluoro-phenyl)-imidazo[1,2-a]pyridin-3-yl]-phenyl}-acetamide formate salt] | < 1 µM

Same assay, conditions: Homo sapiens, LP-1, read-out: LP-1 pERK ELISA (μM)

Row | SMILES | IC50
28 | O=C(NCC(F)(F)F)Nc1cccc(-c2cnc3cc(-c4ccc(F)cc4)ccn23)c1 [Example 59, 1-{3-[7-(4-fluoro-phenyl)-imidazo[1,2-a]pyridin-3-yl]-phenyl}-3-(2,2,2-trifluoro-ethyl)-urea] | 0.0021 µM
